From US6838436B1, “Inhibitors of proteasomal activity for stimulating bone growth” (Osteoscreen Inc., priority 1998, dated 2005) come the findings set out here.

For one assay, the system named is hair follicles. Kind of assay: Induction of anagen in hair follicles in vivo (Example 12). The note with it: for hair follicle differentiation in vivo: examined 16 days later. Further details: species or system C57 black mice. The procedure:
Inhibitors of the proteasomal chymotrypsin-like activity were treated for their capacity to induce transit of hair follicles into anagen in vivo in C57 black mice eight weeks of age.

Assay [1] deals with hair follicles of skin explants. Put plainly: Cultured skin explants from 5 day old mice, hair follicle diameter and elongation (Example 11). It counts as cell-based, C3H/HeS1c mice. The conditions noted are these: 72 hours. The procedure:
Cultured skin explants from 5 day old mice cultured for 72 hours were treated with proteasome inhibitors, non-proteasomal proteases and non-proteasomal inhibitors of NF-κB and effects on hair follicle diameter and follicle elongation were determined according to the method of Kamiya, T., et al., J Derm Sci (1998) 17:54-60. Skin slices from the dorsal skin of 5 day old C3H/HeS1c mice were cultured in 1 ml of αMEM and 0.1% BSA for 72 hours and then assessed for changes in hair follicle diameter and hair elongation under an inverted microscope, using image analysis. […] Thus, the chymotrypsin-like activity of the proteasome is the catalytic component of the proteasome that is responsible for the effects of these compounds on hair follicle differentiation and hair growth. Only proteasome inhibitors had discernable effects on these parameters.

In assay [2] the target is T1, 20S thermophila proteasome (Methanosarcina thermophila, UniProt Q9P992).
T1 construct: purchased CalBiochem, San Diego, Calif
T1 sequence (Q9P992 10-210): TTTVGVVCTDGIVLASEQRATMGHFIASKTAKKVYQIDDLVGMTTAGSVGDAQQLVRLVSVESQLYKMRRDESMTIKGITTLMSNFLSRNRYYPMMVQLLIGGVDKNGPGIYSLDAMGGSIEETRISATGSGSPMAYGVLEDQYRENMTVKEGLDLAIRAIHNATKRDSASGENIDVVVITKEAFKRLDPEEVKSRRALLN
T1 sequence (Q59565 1-247 partner): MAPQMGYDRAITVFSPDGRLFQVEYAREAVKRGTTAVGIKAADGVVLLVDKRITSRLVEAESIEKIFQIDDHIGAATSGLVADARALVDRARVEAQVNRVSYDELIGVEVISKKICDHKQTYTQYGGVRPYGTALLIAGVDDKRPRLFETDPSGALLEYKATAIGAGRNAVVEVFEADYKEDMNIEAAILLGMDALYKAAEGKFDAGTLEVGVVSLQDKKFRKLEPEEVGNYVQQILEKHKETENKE
Kind of assay: biochemical. The procedure:
The assay involves incubating the potential inhibitor with 20S thermophila proteasomes which, in purified form, are commercially available, with a fluorogenic peptide substrate. The presence of an inhibitor will reduce the amount of fluorescence generated by the action of the proteasome fraction on the fluorogenic peptide. This assay is described in further detail in Coux, O., et al., N Rev Biochem (1996) 65:801; Adams, J., et al., Cancer Res (1999) 59:2615; and Craiu, A., et al., J Biol Chem (1997) 272:13437. Further reports are set forth in Hilt, W., et al., Trans Biochem Sci (1996) 21:96; Peters, J., Trends Biochem Sci (1994) 19:377; Maupin-Furlow, J. A., et al., J Biol Chem (1995) 270:28617; and Jensen, T. J., et al., Cell (1995) 83:129. Fluorogenic substrates and purified proteasomes are available, for example, from CalBiochem, San Diego, Calif.
Purified 20S thermophila proteasomes and the fluorogenic peptide substrate Suc-Leu-Leu-Val-Tyr-AMC (SEQ ID NO:3) are available from CalBiochem, San Diego, Calif. Briefly, serial dilutions of the inhibitor to be tested were mixed with proteasome solution at a concentration of proteasome of 0.01 mg/ml. After 30 min incubation at 37° C., substrate solution at a final concentration of 25-30 μg/ml was added and the mixture incubated at 37° C. and then read at 15 min, 30 min, and 60 min in a Fluoroscan instrument. The percentage diminution in fluorescence in the presence as compared to the absence of inhibitor is then calculated.

In another assay the test system is neonatal mouse calvaria. Kind of assay: Neonatal mouse calvaria assay (in vitro / ex vivo) for bone formation. It counts as cell-based, ICR Swiss white mouse. The note with it: for EC50: read-out: Bone Formation (ED50-μM). As to the method: An assay for bone resorption or bone formation is similar to that described by Gowen M. & Mundy G., J Immunol (1986) 136:2478-82. Briefly, four days after birth, the front and parietal bones of ICR Swiss white mouse pups are removed by microdissection and split along the sagittal suture. In an assay for resorption, the bones are incubated in BGJb medium (Irvine Scientific, Santa Ana, Calif.) plus 0.02% (or lower concentration) β-methylcyclodextrin, wherein the medium also contains test or control substances. The medium used when the assay is conducted to assess bone formation is Fitton and Jackson Modified BGJ Medium (Sigma) supplemented with 6 μg/ml insulin, 6 μg/ml transferrin, 6 ng/ml selenous acid, calcium and phosphate concentrations of 1.25 and 3.0 mM, respectively, and ascorbic acid to a concentration of 100 μg/ml is added every two days. The incubation is conducted at 37° C. in a humidified atmosphere of 5% CO2 and 95% air for 96 hours.
Following this, the bones are removed from the incubation media and fixed in 10% buffered formalin for 24-48 hours, decalcified in 14% EDTA for 1 week, processed through graded alcohols; and embedded in paraffin wax. Three […] sections of the calvaria are prepared. Representative sections are selected for histomorphometric assessment of bone formation or bone resorption. Bone changes are measured on sections cut 200 μm apart. Osteoblasts and osteoclasts are identified by their distinctive morphology.
Selected compounds and appropriate controls were assayed in vitro (ex vivo) for bone formation activity (described above in “Techniques for Neonatal Mouse Calvaria Assay (in vitro)). Histomorphometrical assessments of ex vivo calvaria were carried out using an OsteoMetrics bone morphometry measurement program, according to the manufacturer's instructions. Measurements were determined using either a 10- or 20-fold objective with a standard point counting eyepiece graticule.
New bone formation was determined (using a 10× objective) by measuring the new bone area formed in one field in 3 representative sections of each bone (4 bones per group). Each measurement was carried out ½ field distance from the end of the suture. Both total bone and old bone area were measured. Data were expressed as new bone area in μm^2.
Osteoblast numbers are determined by point counting. The number of osteoblast cells lining the bone surface on both sides of the bone are counted in one field using a 20× objective. Data are expressed as osteoblast numbers/mm of bone surface. […]

[3] abbreviates: Mus musculus, calvarial assay in vitro.
Where [4] appears, read: read-out: Proteasome Activity (ED50-μM).
Setting [5] is: read-out: % Proteasomal Activity.

As a reminder, the IC50 is the concentration at which inhibition is half-maximal.

Like-named read-outs stand apart in the source and are kept apart here. Where a SMILES comes first, the peptide text is derived from it. [ ]: non-standard residue; d: D form. The star is where a group is joined. Nva = CCC[C@H](N)C(=O)O; Cbz = O=C(OCc1ccccc1)*; OtBu = CC(C)(C)O*

Regarding `CC[C@H](C)[C@H](NC(=O)[C@H]([C@@H](C)CC)N(C)C(C)=O)C(=O)N[C@H](C(=O)N[C@@H](CC(C)C)C(=O)[C@@]1(C)CO1)[C@@H](C)O` [Epoxomicin], the “hair follicle differentiation in vivo” value with hair follicles (dose not given, subcutaneously in the scalp daily for 5 days) is reported as “increased hair follicle differentiation in vivo”. In assay [1], the “effective in concentrations as low as” value turned out to be 12.5 nM. In addition, in assay [2], the concentration for half-maximal inhibition (IC50) was around 60 nM.
As for `CC(=O)N[C@@H](CSC(=O)[C@]1([C@@H](O)C(C)C)NC(=O)[C@H](C)[C@@H]1O)C(=O)O` [Lactacystin, lactacystin], the “new bone formation in the in vitro calvarial assay” value (shortened to “new bone formation”) with neonatal mouse calvaria was “showed new bone formation”. In addition, the EC50 in the assay with neonatal mouse calvaria (setting [3]) was determined as 1 µM; in assay [2] it was 1.5 µM. For the same molecule, in assay [1] (dose not given), the “effect on hair follicle differentiation and hair growth” value was “effectively stimulated hair follicle differentiation and enhanced hair growth”.
As for `CCC[C@@H](C=O)NC(=O)[C@H](CC(C)C)NC(=O)[C@H](CC(C)C)NC(=O)OCc1ccccc1` [MG-115, N-carbobenzoyl-Leu-Leu-Nva-CHO] (Cbz-Leu-Leu-[Nva]-aldehyde), the “new bone formation” value in the assay on neonatal mouse calvaria is recorded as “positive results although less dramatic than those of simvastatin”. For the same molecule, the EC50 (in the assay with neonatal mouse calvaria (setting [3]); in assay [2] (setting [4])) was 1 µM in each case.
Turning to `CC(C)C[C@@H](C=O)NC(=O)[C@@H](CC(C)C)NC(=O)[C@H](CC(C)C)NC(=O)OCc1ccccc1` [MG-132, N-carbobenzoyl-Leu-Leu-Leu-CHO] (Cbz-Leu-[dL]-Leu-aldehyde), the “new bone formation” value in the assay on neonatal mouse calvaria is listed as “showed new bone formation”. In the assay with neonatal mouse calvaria (Mus musculus), the EC50 stood at 0.5 µM. The “effect on hair follicle differentiation and hair growth” value in assay [1] (0.5 μM) is “effectively stimulated hair follicle differentiation and enhanced hair growth”. Besides, in assay [2] (setting [5]), the remaining activity at 0.002 µM worked out at 101%, the remaining activity at 0.004 µM worked out at 99%, the remaining activity at 0.008 µM was found to be 101% and the remaining activity at 0.016 µM was 100%. Moreover, in assay [2] (setting [5]), the remaining activity at 0.032 µM is 98%, the remaining activity at 0.062 µM amounted to 90%, the remaining activity at 0.125 µM was 87% and the remaining activity at 0.25 µM came out at 73%. Also, in assay [2] (setting [5]), the remaining activity at 0.5 µM is 57%, the remaining activity at 1 µM stood at 44% and the remaining activity at 2 µM came to 19%. Also, in assay [2] (setting [4]), the EC50 was determined as 0.3 µM.
For `CC[C@H](C)[C@H](NC(=O)OCc1ccccc1)C(=O)N[C@@H](CCC(=O)OC(C)(C)C)C(=O)N[C@@H](C)C(=O)N[C@H](C=O)CC(C)C` [PSI, N-carbobenzoyl-Ile-Glu-(OtBu)-Ala-Leu-CHO] (Cbz-IE(OtBu)AL-aldehyde), the “hair follicle differentiation in vivo” value in the assay with hair follicles (5 mg/kg/day subcutaneously in the scalp daily for 5 days) is “increased hair follicle differentiation in vivo”. The “inducing bone formation compared with BMP-2 and bFGF” value with neonatal mouse calvaria was “as good as, or better than, BMP-2 and bFGF”. In addition, in the assay with neonatal mouse calvaria (setting [3]), the EC50 turned out to be 0.03 µM. Also, the “effect on hair follicle differentiation and hair growth” value in assay [1] (12.5 nM) is “effectively stimulated hair follicle differentiation and enhanced hair growth”. In assay [2], this molecule returned an EC50 of 0.035 µM and an IC50 of around 60 nM. Further, in assay [2] (setting [5]), the remaining activity at 0.002 µM came to 100%, the remaining activity at 0.004 µM stood at 95%, the remaining activity at 0.008 µM was 94% and the remaining activity at 0.016 µM worked out at 86%. Also, in assay [2] (setting [5]), the remaining activity at 0.032 µM amounted to 76%, the remaining activity at 0.062 µM stood at 54%, the remaining activity at 0.125 µM is 30% and the remaining activity at 0.25 µM came to 11%. Further, in assay [2] (setting [5]), the remaining activity at 0.5 µM stood at 6% and the remaining activity at 1 µM was determined as 5%.
As to simvastatin, the “effect on hair follicles” value in the assay on hair follicles (injected locally into the subcutaneous tissue in sufficient concentrations to cause local periosteal bone formation) is reported as “had no effect on hair follicles”. The “new bone formation” value in the assay on neonatal mouse calvaria is “showed new bone formation”. In the assay with neonatal mouse calvaria (calvarial assay in vitro), the EC50 turned out to be 0.2 µM.
